“And” between values parts separate entries of the source, which are not always exact repeats. Equal entries are not always repeated.
Columns and labels:
[1] = 39° C., 0.47 T; cited from earlier work
[2] = 39° C., 0.47 T; cited from earlier work; remark: listed apart in the source
[3] = Organ distribution (including tumor and lymph node concentration) after intravenous administration in prostate-cancer-carrying rats; assay type: in vivo, rats (Cop-inbreeding, Dunning R3327 MAT-Lu prostate cancer); conditions: rat i.v. 100 μmol Gd/kg
Text: Organ Distribution (Including Tumor and Lymph Node Concentration) After Intravenous Administration of the Contrast Medium According to the Invention From Example 3 in Prostate-cancer-Carrying Rats.
After intravenous administration of 100 μmol of total gadolinium/kg of body weight of the title compound of Example 3 in rats (Cop-inbreeding Dunning R3327 MAT-Lu prostate cancer i.m.-implanted 12 days earlier), the metal content in various organs, in tumors and in lymph nodes (pooled as mesenteral and peripheral lymph nodes) was determined 10 minutes, 1 and 24 hours after administration (MW=SD, n=3).

[4] = in vivo; cited from earlier work
[5] = tested on: infarcted tissue (kidney, myocardium); conditions: two cases: infarction-kidney and myocardium; cited from earlier work
[6] = blood (58 ml of blood/kg of body weight), 10 min p.i.
[7] = blood (58 ml of blood/kg of body weight), 1 h p.i.
[8] = blood (58 ml of blood/kg of body weight), 24 h p.i.
[9] = intestine (emptied), 10 min p.i.
[10] = mes. LK (pooled mesenteral lymph nodes), 10 min p.i.
[11] = mes. LK (pooled mesenteral lymph nodes), 1 h p.i.
[12] = mes. LK (pooled mesenteral lymph nodes), 24 h p.i.
[13] = muscle (only tissue sample from right lower leg muscle), 10 min p.i.
[14] = muscle (only tissue sample from right lower leg muscle), 1 h p.i.
[15] = muscle (only tissue sample from right lower leg muscle), 24 h p.i.
[16] = periph. LK (pooled peripheral lymph nodes), 10 min p.i.
[17] = periph. LK (pooled peripheral lymph nodes), 1 h p.i.
[18] = periph. LK (pooled peripheral lymph nodes), 24 h p.i.
[19] = remainder of the body, 24 h p.i.

## CNC[C@H](O)[C@@H](O)[C@H](O)[C@H](O)CO.O=C([O-])CN1CCN(CC(=O)[O-])CCN(CC(=O)O)CCN(CC(=O)[O-])CC1.[Gd+3] [DOTAREM ®]
[1]
  T^1 - Relaxivity in Water: 3.5 mmol⁻¹ s⁻¹
[2]
  T^1 - Relaxivity in Plasma: 4.3 mmol⁻¹ s⁻¹

## CC(C(=O)NCC(=O)NCCCC[C@H](NC(=O)CNC(=O)C(C)N1CCN(CC(=O)[O-])CCN(CC(=O)[O-])CCN(CC(=O)[O-])CC1)C(=O)N1CCN(S(=O)(=O)C(F)(F)C(F)(F)C(F)(F)C(F)(F)C(F)(F)C(F)(F)C(F)(F)C(F)(F)F)CC1)N1CCN(CC(=O)[O-])CCN(CC(=O)[O-])CCN(CC(=O)[O-])CC1.[Gd+3].[Gd+3] (some centres unmarked) [Example 3]
[3]; 10 min p.i., less the remainder of the body
  % Dosis pro Gesamtgewebe, Summe der Organe (sum total of all of the organs): 46,35%
[3]; 1 h p.i., less the remainder of the body
  % Dosis pro Gesamtgewebe, Summe der Organe (sum total of all of the organs): 41,79%
[3]; 24 h p.i.
  % Dosis pro Gesamtgewebe, Bilanz (balance): 96,24%
  % Dosis pro Gesamtgewebe, Summe der Organe (sum total of all of the organs): 50,95%
[3]; [6]
  % Dosis pro Gesamtgewebe (% dose per total tissue): 35,18%
  Gd-Konzentration (Gd-concentration): 621 µmol/L
[3]; [7]
  % Dosis pro Gesamtgewebe (% dose per total tissue): 30,63%
  Gd-Konzentration (Gd-concentration): 534 µmol/L
[3]; [8]
  % Dosis pro Gesamtgewebe (% dose per total tissue): 9,58%
  Gd-Konzentration (Gd-concentration): 169 µmol/L
[3]; brain, 10 min p.i.
  % Dosis pro Gesamtgewebe (% dose per total tissue): 0,09%
  Gd-Konzentration (Gd-concentration): 16 µmol/L
[3]; brain, 1 h p.i.
  % Dosis pro Gesamtgewebe (% dose per total tissue): 0,10%
  Gd-Konzentration (Gd-concentration): 16 µmol/L
[3]; brain, 24 h p.i.
  % Dosis pro Gesamtgewebe (% dose per total tissue): 0,03%
  Gd-Konzentration (Gd-concentration): 5 µmol/L
[3]; feces 0-24 h
  % Dosis pro Gesamtgewebe (% dose per total tissue): 8,91%
  Gd-Konzentration (Gd-concentration): 561 µmol/L
[3]; femur, 10 min p.i.
  % Dosis pro Gesamtgewebe (% dose per total tissue): 0,50%
  Gd-Konzentration (Gd-concentration): 61 µmol/L
[3]; femur, 1 h p.i.
  % Dosis pro Gesamtgewebe (% dose per total tissue): 0,50%
  Gd-Konzentration (Gd-concentration): 64 µmol/L
[3]; femur, 24 h p.i.
  % Dosis pro Gesamtgewebe (% dose per total tissue): 0,26%
  Gd-Konzentration (Gd-concentration): 33 µmol/L
[3]; heart, 10 min p.i.
  % Dosis pro Gesamtgewebe (% dose per total tissue): 0,40%
  Gd-Konzentration (Gd-concentration): 177 µmol/L
[3]; heart, 1 h p.i.
  % Dosis pro Gesamtgewebe (% dose per total tissue): 0,33%
  Gd-Konzentration (Gd-concentration): 151 µmol/L
[3]; heart, 24 h p.i.
  % Dosis pro Gesamtgewebe (% dose per total tissue): 0,15%
  Gd-Konzentration (Gd-concentration): 65 µmol/L
[3]; [9]
  % Dosis pro Gesamtgewebe (% dose per total tissue): 2,48%
  Gd-Konzentration (Gd-concentration): 146 µmol/L
[3]; intestine (emptied), 1 h p.i.
  % Dosis pro Gesamtgewebe (% dose per total tissue): 1,85%
  Gd-Konzentration (Gd-concentration): 130 µmol/L
[3]; intestine (emptied), 24 h p.i.
  % Dosis pro Gesamtgewebe (% dose per total tissue): 1,63%
  Gd-Konzentration (Gd-concentration): 101 µmol/L
[3]; kidney, 10 min p.i.
  % Dosis pro Gesamtgewebe (% dose per total tissue): 1,70%
  Gd-Konzentration (Gd-concentration): 359 µmol/L
[3]; kidney, 1 h p.i.
  % Dosis pro Gesamtgewebe (% dose per total tissue): 2,00%
  Gd-Konzentration (Gd-concentration): 394 µmol/L
[3]; kidney, 24 h p.i.
  % Dosis pro Gesamtgewebe (% dose per total tissue): 1,38%
  Gd-Konzentration (Gd-concentration): 292 µmol/L
[3]; liver, 10 min p.i.
  % Dosis pro Gesamtgewebe (% dose per total tissue): 3,79%
  Gd-Konzentration (Gd-concentration): 137 µmol/L
[3]; liver, 1 h p.i.
  % Dosis pro Gesamtgewebe (% dose per total tissue): 3,93%
  Gd-Konzentration (Gd-concentration): 136 µmol/L
[3]; liver, 24 h p.i.
  % Dosis pro Gesamtgewebe (% dose per total tissue): 5,37%
  Gd-Konzentration (Gd-concentration): 172 µmol/L
[3]; lung, 10 min p.i.
  % Dosis pro Gesamtgewebe (% dose per total tissue): 1,30%
  Gd-Konzentration (Gd-concentration): 344 µmol/L
[3]; lung, 1 h p.i.
  % Dosis pro Gesamtgewebe (% dose per total tissue): 1,27%
  Gd-Konzentration (Gd-concentration): 321 µmol/L
[3]; lung, 24 h p.i.
  % Dosis pro Gesamtgewebe (% dose per total tissue): 0,56%
  Gd-Konzentration (Gd-concentration): 146 µmol/L
[3]; [10]
  % Dosis pro Gesamtgewebe (% dose per total tissue): 0,11%
  Gd-Konzentration (Gd-concentration): 155 µmol/L
[3]; [11]
  % Dosis pro Gesamtgewebe (% dose per total tissue): 1,10%
  Gd-Konzentration (Gd-concentration): 160 µmol/L
[3]; [12]
  % Dosis pro Gesamtgewebe (% dose per total tissue): 0,09%
  Gd-Konzentration (Gd-concentration): 127 µmol/L
[3]; [13]
  % Dosis pro Gesamtgewebe (% dose per total tissue): 0,12%
  Gd-Konzentration (Gd-concentration): 41 µmol/L
[3]; [14]
  % Dosis pro Gesamtgewebe (% dose per total tissue): 0,08%
  Gd-Konzentration (Gd-concentration): 40 µmol/L
[3]; [15]
  % Dosis pro Gesamtgewebe (% dose per total tissue): 0,03%
  Gd-Konzentration (Gd-concentration): 13 µmol/L
[3]; pancreas, 10 min p.i.
  % Dosis pro Gesamtgewebe (% dose per total tissue): 0,25%
  Gd-Konzentration (Gd-concentration): 99 µmol/L
[3]; pancreas, 1 h p.i.
  % Dosis pro Gesamtgewebe (% dose per total tissue): 0,23%
  Gd-Konzentration (Gd-concentration): 95 µmol/L
[3]; pancreas, 24 h p.i.
  % Dosis pro Gesamtgewebe (% dose per total tissue): 0,18%
  Gd-Konzentration (Gd-concentration): 55 µmol/L
[3]; [16]
  % Dosis pro Gesamtgewebe (% dose per total tissue): 0,13%
  Gd-Konzentration (Gd-concentration): 115 µmol/L
[3]; [17]
  % Dosis pro Gesamtgewebe (% dose per total tissue): 0,19%
  Gd-Konzentration (Gd-concentration): 186 µmol/L
[3]; [18]
  % Dosis pro Gesamtgewebe (% dose per total tissue): 0,11%
  Gd-Konzentration (Gd-concentration): 108 µmol/L
[3]; [19]
  % Dosis pro Gesamtgewebe (% dose per total tissue): 31,05%
  Gd-Konzentration (Gd-concentration): 103 µmol/L
[3]; spleen, 10 min p.i.
  % Dosis pro Gesamtgewebe (% dose per total tissue): 0,25%
  Gd-Konzentration (Gd-concentration): 184 µmol/L
[3]; spleen, 1 h p.i.
  % Dosis pro Gesamtgewebe (% dose per total tissue): 0,23%
  Gd-Konzentration (Gd-concentration): 161 µmol/L
[3]; spleen, 24 h p.i.
  % Dosis pro Gesamtgewebe (% dose per total tissue): 0,25%
  Gd-Konzentration (Gd-concentration): 161 µmol/L
[3]; stomach (emptied), 10 min p.i.
  % Dosis pro Gesamtgewebe (% dose per total tissue): 0,47%
  Gd-Konzentration (Gd-concentration): 90 µmol/L
[3]; stomach (emptied), 1 h p.i.
  % Dosis pro Gesamtgewebe (% dose per total tissue): 0,50%
  Gd-Konzentration (Gd-concentration): 93 µmol/L
[3]; stomach (emptied), 24 h p.i.
  % Dosis pro Gesamtgewebe (% dose per total tissue): 0,27%
  Gd-Konzentration (Gd-concentration): 48 µmol/L
[3]; tumor, 10 min p.i.
  % Dosis pro Gesamtgewebe (% dose per total tissue): 0,20%
  Gd-Konzentration (Gd-concentration): 82 µmol/L
[3]; tumor, 1 h p.i.
  % Dosis pro Gesamtgewebe (% dose per total tissue): 0,40%
  Gd-Konzentration (Gd-concentration): 126 µmol/L
[3]; tumor, 24 h p.i.
  % Dosis pro Gesamtgewebe (% dose per total tissue): 0,46%
  Gd-Konzentration (Gd-concentration): 100 µmol/L
[3]; urine 0-24 h
  % Dosis pro Gesamtgewebe (% dose per total tissue): 36,38%
  Gd-Konzentration (Gd-concentration): 60 µmol/L

## CNC[C@H](O)[C@@H](O)[C@H](O)[C@H](O)CO.CNC[C@H](O)[C@@H](O)[C@H](O)[C@H](O)CO.O=C([O-])CN(CCN(CC(=O)[O-])CC(=O)O)CCN(CC(=O)[O-])CC(=O)O.[Gd+3] [MAGNEVIST ®]
[1]
  T^1 - Relaxivity in Water: 3.8 mmol⁻¹ s⁻¹
[2]
  T^1 - Relaxivity in Plasma: 4.8 mmol⁻¹ s⁻¹

## O=S(=O)([O-])c1ccc(-c2c3nc(c(-c4ccc(S(=O)(=O)[O-])cc4)c4ccc([nH]4)c(-c4ccc(S(=O)(=O)[O-])cc4)c4nc(c(-c5ccc(S(=O)(=O)[O-])cc5)c5ccc2[nH]5)C=C4)C=C3)cc1.[Mn+4] [Mn-TPPS, manganese-5,10,15,20-tetrakis(4-sulfonatophenyl)-porphyrin]
[4]
  LD50: approximately 0.5 mmol/kg

## CNC(=O)CN(CCN(CCN(CC(=O)[O-])CC(=O)NC)CC(=O)[O-])CC(=O)[O-].[Gd+3] [OMNISCAN ®]
[1]
  T^1 - Relaxivity in Water: 3.8 mmol⁻¹ s⁻¹
[2]
  T^1 - Relaxivity in Plasma: 4.4 mmol⁻¹ s⁻¹

## CC(O)CN1CCN(CC(=O)[O-])CCN(CC(=O)[O-])CCN(CC(=O)[O-])CC1.[Gd+3] (centres unmarked) [PRO HANCE ®]
[1]
  T^1 - Relaxivity in Water: 3.7 mmol⁻¹ s⁻¹
[2]
  T^1 - Relaxivity in Plasma: 4.9 mmol⁻¹ s⁻¹

## gadolinium-mesoporphyrin [Gd-MP]
[5]
  ratio of the signal intensities in MRI, infarcted in comparison to healthy tissue: 2.10 and 2.19

Source: patent US6676928B2, “Perfluoroalkyl-containing complexes with polar radicals, process for their production and their use” (Schering Aktiengesellschaft, priority 2000, dated 2004)
